From article PMC6764326, “The Trials and Tribulations of Structure Assisted Design of KCa Channel Activators” (Frontiers in Pharmacology, 2019)

What was measured:
[1] = parameters: method as in Coleman et al., 2014; settings: ref Coleman et al., 2014, cited from earlier work; for KCa2 channel mediated side effects on CNS and heart rate: mice; for Blood pressure lowering: normotensive and hypertensive mice
[2] = tested on: KCa3.1 over KCa2 channels; settings: second generation activators; ref Coleman et al., 2014; cited from earlier work
KCa2.2 = molecular target: T1, KCa2.2 (Homo sapiens, UniProt P0DP23+Q9H2S1); assay: QPatch automated whole-cell patch-clamp screen, 10 µM activator normalized to 10 µM SKA-31; type: cell-based; settings: 250 nM free internal Ca2+, HEK cells stably expressing channel
T1 construct: expressed in transfected cells
Experimental: (§1) All experiments were performed in either the inside-out or the whole-cell configuration of the patch-clamp technique on either transiently transfected CHO cells or Human Embryonic Kidney (HEK) cell lines stably expressing hKCa3.1 or hKCa2.2 ([Sankaranarayanan et al., 2009]). All cells were cultured in Dulbecco’s modified Eagle’s medium supplemented with 10% fetal calf serum. Wild-type (WT) and mutant hKCa3.1 channel constructs were transfected using FuGENE 6 transfection reagent (Promega, Madison, WI) in OptiMEM reduced-serum medium (Life Technologies, Benicia, CA) for manual patch-clamp experiments or via electroporation (Nucleofector 2b and Lonza Amaxa Cell Line Nucleofector Kit T) according to the manufacturer’s instructions for automated electrophysiology.
(§2) The procedure for performing automated whole-cell KCa channel recordings on a QPatch-16 automated electrophysiology platform (Sophion Biosciences) was previously described in detail by our laboratory ([Jenkins et al., 2013]). For the current study we used the solutions described above with disposable 16-channel planar patch chip plates (QPlates; patch hole diameter […], resistance 2.00–0.02MΩ, Sophion Biosciences, Woburn, MA). Cell positioning and sealing parameters were set as follows: positioning pressure -70 mbar, resistance increase for success 750%, minimum seal resistance 0.1 GΩ, holding potential -0 mV, holding pressure -20 mbar. To avoid rejection of cells with large KCa3.1 currents, the minimum seal resistance for whole-cell requirement was lowered to 0.001 GΩ. Access was obtained with the following sequence: 1) suction pulses in 29 mbar increments from -250 mbar to -453 mbar; 2) a suction ramp of an amplitude of -450 mbar; 3) -400 mV voltage zaps of 1 ms duration. Following establishment of the whole-cell configuration, cells were held at -80 mV and KCa currents elicited by a voltage protocol that held at -80 mV for 20 ms, stepped to -120 mV for 20 ms, ramped from -120 to + 40 mV in 200 ms, and then stepped back to -120 mV for 20 ms. This pulse protocol was applied every 10 s. KCa activator dilutions were prepared freshly (within 5 min of the initiation of the QPatch) with Ringer’s solution from 10 mM stock solutions in dry DMSO. Final DMSO concentrations never exceeded 1%. Glass vial inserts (to avoid adsorption) were filled with 400 µL of compound solution and placed into the insert base plate for use in the QPatch assay. Exemplary QPatch raw current traces and plots of slope conductance versus time are shown in Supplementary Figure 3 . For each compound we typically used 12 consecutive liquid periods Break-in, 3 saline additions to stabilize the current, 2 additions of test compound at 10 µM, 2 saline washes, 2 additions of SKA-31 at 10 µM, followed by 2 more saline washes. In each liquid period 10 pulse protocols were run.
(§3) The newly synthesized compounds were tested by automated whole-cell patch-clamp for their ability to activate KCa2.2 and KCa3.1 channels stably expressed in HEK cells. […] A promising compound would ideally do both. […] We started by comparing the effect of the SKA-74 derivatives to SKA-31 ( Figure 4A ).
(§4) Figure 4 Whole-cell KCa3.1 and KCa2.2 responses elicited by 10 µM of activator and normalized to 10 µM of the mixed activator SKA-31. Experiments were performed by automated electrophysiology with 250 nM of free internal Ca^2+. In each experiment the new activator was tested first, washed out with 2 saline additions, and then SKA-31 was applied as positive control for normalization of the response. (A) Screening of SKA-74 derivatives. (B) Screening of SKA-75 and SKA-76 derivatives. The bar graphs show means ± SD of the slope conductance measured between −85 and −65 mV (n = 2–7 cells). Chemical structures are shown below the bar graphs.
(§5) Figure 5 Whole-cell KCa3.1 and KCa2.2 responses elicited by 10 µM of activator and normalized to 10 µM of the mixed activator SKA-31. […]

KCa3.1 = molecular target: T2, KCa3.1 (Homo sapiens, UniProt O15554+P0DP23); assay: as above; type: cell-based; settings: 250 nM free internal Ca2+, HEK cells stably expressing channel
T2 construct: expressed in transfected cells
Experimental: as §1, §2, §3, §4, §5

Row | Compound | KCa2 channel mediated side effects on CNS and heart rate [1] | Blood pressure lowering [1] | Selectivity for KCa3.1 [2] | melting point [°C] | Whole-cell KCa2.2 response elicited by 10 µM of activator normalized to 10 µM SKA-31 (described in words) (KCa2.2) | Whole-cell KCa3.1 response elicited by 10 µM of activator normalized to 10 µM SKA-31 (described in words) (KCa3.1)
1 | Cc1cc2sc(N)nc2c2ccccc12 [SKA-111, 5-methylnaphtho[1,2-d]thiazol-2-amine] | avoiding KCa2 channel mediated side effects on the CNS and on heart rate | efficacious in lowering blood pressure |  |  |  | 
2 | Cc1cc2nc(N)oc2c2ccccc12 [SKA-121, 5-methylnaphtho[2,1-d]oxazol-2-amine] | avoiding KCa2 channel mediated side effects on the CNS and on heart rate | efficacious in lowering blood pressure | 40–100 fold |  |  | 
3 | Cc1nc2c(cc(C#N)c3ccccc32)o1 [SKA-135, 2-Methylnaphtho[1,2-d]oxazole-5-carbonitrile] |  |  |  | 145 to 146 | inactive | inactive
4 | c1ccc(Nc2nc3c(ccc4ccccc43)s2)cc1 [SKA-146, N-Phenylnaphtho[1,2-d]thiazol-2-amine] |  |  |  | 140 to 141 | less potent than SKA-31 | less potent than SKA-31
5 | CNc1nc2c(ccc3ccccc32)s1 [SKA-158, N-Methylnaphtho[1,2-d]thiazol-2-amine] |  |  |  | 187 to 188 | abolished activity on KCa2.2 | preserved it again on KCa3.1
6 | Cc1ccc2cccc(-c3csc(N)n3)c2c1 [SKA-193, 4-(7-Methylnaphthalen-1-yl)thiazol-2-amine] |  |  |  | 154 to 156 | somewhat increased KCa channel activating potency | somewhat increased KCa channel activating potency
7 | Cc1ccc2cc(-c3csc(N)n3)ccc2c1 [SKA-198, 4-(6-Methylnaphthalen-2-yl)thiazol-2-amine] |  |  |  | 178 to 179 | somewhat increased KCa channel activating potency | somewhat increased KCa channel activating potency
8 | Cc1nc2c(ccc3c([N+](=O)[O-])cccc32)s1 [SKA-215, 2-Methyl-6-nitronaphtho[1,2-d]thiazole] |  |  |  | 178 to 179 | inactive | inactive
9 | Nc1nc(-c2ccc(-c3csc(N)n3)cc2)cs1 [SKA-230, 4,4'-(1,4-Phenylene)bis(thiazol-2-amine)] |  |  |  | 350 | completely devoid of activity | completely devoid of activity
10 | FC(F)(F)c1cccc(Nc2nc(-c3cccc4ccccc34)cs2)c1 [SKA-251, 4-(Naphthalen-1-yl)-N-(3-(trifluoromethyl)phenyl)thiazol-2-amine] |  |  |  | 135 | completely abolished activity | completely abolished activity
11 | c1ccc(Nc2nc(-c3cccc4ccccc34)cs2)nc1 [SKA-258, 4-(Naphthalen-1-yl)-N-(pyridin-2-yl)thiazol-2-amine] |  |  |  | 225 | completely abolished activity | completely abolished activity
12 | Cc1ccc(-c2csc(Nc3cccc(C(F)(F)F)c3)n2)cc1 [SKA-260, 4-(p-Tolyl)-N-(3-(trifluoromethyl)phenyl)thiazol-2-amine] |  |  |  | 108 | completely devoid of activity | completely devoid of activity
13 | FC(F)(F)c1ccc(Nc2nc(-c3ccccc3)cs2)cc1 [SKA-268, 4-Phenyl-N-(4-(trifluoromethyl)phenyl)thiazol-2-amine] |  |  |  | 153 | completely devoid of activity | completely devoid of activity
14 | Nc1nc2c(cc([N+](=O)[O-])c3ccccc32)s1 [SKA-321, 5-Nitronaphtho[1,2-d]thiazol-2-amine] |  |  |  | 289 to 291 | drastically reduced potency | drastically reduced potency
15 | CCN(CC)c1cc2sc(N)nc2c2ccccc12 [SKA-330, N^5,N^5-Diethylnaphtho[1,2-d]thiazole-2,5-diamine] |  |  |  | 119 to 121 | somewhat reduced potency | somewhat reduced potency
